The source of these data is ChEMBL document CHEMBL1144872, “A quantitative structure-activity relationship and pharmacophore modeling investigation of aryl-X and heterocyclic bisphosphonates as bone resorption agents” (J Med Chem, 2003).

The IC50 is the midpoint of a concentration-inhibition curve.

For this test, the target named is bone resorption (Rattus norvegicus).
Compound `O=P(O)(O)C(O)(CCn1ccnc1)P(=O)(O)O` had an IC50 of 0.157 µM.
Consider `O=P(O)(O)C(O)(CCNCCc1ccccc1)P(=O)(O)O`, for which inhibition was half-maximal at 0.885 µM (IC50).
`CN(CCCOc1ccccc1)CCC(O)(P(=O)(O)O)P(=O)(O)O` had an IC50 of 0.00129 µM.
The compound `O=P(O)(O)C(O)(CCNCCCc1ccccc1)P(=O)(O)O` had a 50% inhibitory concentration (IC50) of 0.0558 µM.
`O=C(c1ccccc1)n1ccnc1CC(O)(P(=O)(O)O)P(=O)(O)O` had an IC50 of 0.0646 µM.
Next, `O=P(O)(O)C(O)(CCNCCCSc1ccccc1)P(=O)(O)O`: 0.0182 µM; `CN(CCCSc1ccccc1)CCC(O)(P(=O)(O)O)P(=O)(O)O`: 0.000618 µM.
For `Cn1ccnc1CC(O)(P(=O)(O)O)P(=O)(O)O`, it took 0.00197 µM to reach half-maximal inhibition (IC50).
Consider `CN(CCCCOc1ccccc1)CCC(O)(P(=O)(O)O)P(=O)(O)O`, for which the IC50 is 0.0101 µM.
`CN(CCCCCCOc1ccccc1)CCC(O)(P(=O)(O)O)P(=O)(O)O` gave an IC50 of 17.6 µM.
Compound `CN(CCCOc1ccccc1)CCCC(O)(P(=O)(O)O)P(=O)(O)O` gave an IC50 of 0.246 µM.
Under `CCCc1cnc(NC(P(=O)(O)O)P(=O)(O)O)s1` stands 0.00615 µM; under `O=P(O)(O)C(Nc1nccn1Cc1ccccc1)P(=O)(O)O`, 0.185 µM.
`O=P(O)(O)C(Nc1ncc[nH]1)P(=O)(O)O` gave a 50% inhibitory concentration (IC50) of 1.95 µM.
`Cc1ncn(CC(O)(P(=O)(O)O)P(=O)(O)O)c1C`: the midpoint of inhibition, the IC50, lay at 0.005 µM.
Turning to `CN(CCCOc1ccc(Cl)cc1)CCC(O)(P(=O)(O)O)P(=O)(O)O`, the IC50 is 0.00312 µM.
Compound `CN(CCOc1ccc(Cl)cc1)CCC(O)(P(=O)(O)O)P(=O)(O)O` gave an IC50 of 0.00407 µM.
Next, `CCCCc1cnc(NC(P(=O)(O)O)P(=O)(O)O)s1`: 0.00269 µM; `CN(CCCc1ccccc1)CCC(O)(P(=O)(O)O)P(=O)(O)O`: 0.00259 µM.
As for `O=P(O)(O)C(Cc1nccs1)P(=O)(O)O`, inhibition was half-maximal at 0.733 µM (IC50).
The compound `O=P(O)(O)C(O)(Cn1cncn1)P(=O)(O)O` gave an IC50 of 2.2 µM.
`O=P(O)(O)C(Nc1ncc(CCc2ccccc2)s1)P(=O)(O)O` showed an IC50 of 0.00708 µM.
`CC(C)c1cnc(NC(P(=O)(O)O)P(=O)(O)O)s1`: half-maximal inhibition (IC50) required 0.632 µM.
`CN(CCCOc1ccc(F)cc1)CCC(O)(P(=O)(O)O)P(=O)(O)O` had an IC50 of 0.00145 µM.
`CN(CCc1ccccc1)CCC(O)(P(=O)(O)O)P(=O)(O)O` gave an IC50 of 0.00392 µM.
Compound `O=P(O)(O)C(O)(CCc1cnc[nH]1)P(=O)(O)O` gave an IC50 of 0.0667 µM.
`Cc1cccc(OCCCN(C)CCC(O)(P(=O)(O)O)P(=O)(O)O)c1`: the half-maximal inhibitory concentration (IC50) was 0.00427 µM.
Turning to `CCCCN(CCCOc1ccccc1)CCC(O)(P(=O)(O)O)P(=O)(O)O`, the IC50 is 1.17 µM.
Next, `Cc1nc[nH]c1CC(O)(P(=O)(O)O)P(=O)(O)O`: 0.00513 µM.
Next, `Cc1csc(NC(P(=O)(O)O)P(=O)(O)O)n1`: 0.347 µM; `O=P(O)(O)C(O)(CCNCCCCc1ccccc1)P(=O)(O)O`: 0.00269 µM; `CN(CCCCCCc1ccccc1)CCC(O)(P(=O)(O)O)P(=O)(O)O`: 3.63 µM.
The compound `CCc1cnc(NC(P(=O)(O)O)P(=O)(O)O)s1` showed an IC50 of 0.00482 µM.
For the compound `COc1ccc(OCCCN(C)CCC(O)(P(=O)(O)O)P(=O)(O)O)cc1`, the IC50 was 0.00282 µM.
As to `O=P(O)(O)C(O)(CCNCCCOc1ccccc1)P(=O)(O)O`, the midpoint of inhibition, the IC50, lay at 0.00325 µM.
The compound `CCN(CCCOc1ccccc1)CCC(O)(P(=O)(O)O)P(=O)(O)O` yielded an IC50 of 0.0721 µM.
For the compound `Cn1ccnc1NC(P(=O)(O)O)P(=O)(O)O`, half-maximal inhibition (IC50) was put at 0.0185 µM.
For the compound `CN(CCCc1ccc(Cl)cc1)CCC(O)(P(=O)(O)O)P(=O)(O)O`, inhibition was half-maximal at 0.00166 µM (IC50).
Under `CCCN(CCCOc1ccccc1)CCC(O)(P(=O)(O)O)P(=O)(O)O` stands 0.024 µM.
`Cc1cnc(NC(P(=O)(O)O)P(=O)(O)O)s1` gave an IC50 of 0.00513 µM.
`O=P(O)(O)C(O)(Cc1ncc[nH]1)P(=O)(O)O` gave an IC50 of 0.0178 µM.
As for `O=P(O)(O)C(Nc1nccs1)P(=O)(O)O`, the IC50 was 0.0182 µM.
In the case of `CN(CCCSc1ccc(Cl)cc1)CCC(O)(P(=O)(O)O)P(=O)(O)O`, inhibition was half-maximal at 0.018 µM (IC50).
